Entries after “also recorded” stand apart in the source; their conditions may differ.
Columns and labels:
[1] = tested on: monoacylglycerol lipase (MAGL); settings: De Petrocellis et al., 2011; cited from earlier work
[2] = biological target: transient receptor potential (TRP) ankyrin 1-type (TRPA1) channels (Rattus norvegicus, UniProt Q6RI86); settings: De Petrocellis et al., 2008; 2011; cited from earlier work
[3] = tested on: endocannabinoid cellular reuptake; settings: Ligresti et al., 2006; cited from earlier work
[4] = tested on: Poly(I:C)-induced ARDS in C57BL/6 mice; assay: Poly(I:C)-induced ARDS mouse model, CBC treatment
Experimental: Animal model and application of Poly(I:C) and CBC: Wild-type (WT) C57BL/6 mice (male, 12 weeks old) were divided into 3 experimental groups of sham, control and treatment (n=5). […] All mice were anesthetized with isoflurane. Sham group received PBS while control and treatment groups were administered by Poly(I:C) (Sigma Aldrich, USA) (100 μg in 50 μl sterile PBS) intranasally (I/N) three once-daily doses. CBC (isolate THC free) was delivered intraperitoneally (5mg/kg), first dose two hours after the second Poly(I:C) treatment and every other day interval, total of 3 doses. Sham and control groups received PBS only. All mice were sacrificed at 8 days after the first Poly(I:C) application. Blood and lung tissues were harvested and subjected to the further analysis.
Measurement of vital signs: Vital signs including temperature, Blood O2 saturation were measured prior and post of any treatment. Central body temperature was measured rectally and blood oxygen saturation was determined using portable pulse oximetry through carotid arteries.
Histology and immunohistochemistry: Left lobes of lung tissue were fixed in 10% neutral buffered formalin. Samples were processed by routine methods, oriented so as to provide coronal sections and 5 micron mid-coronal sections cut and stained with hematoxylin & eosin, Trichrome for histology. As for inflammatory indices, immunohistochemistry was performed by incubating the samples with specific antibodies against murine IL-6 (Cat #554402, BD BioSciences Pharmingen) and Neutrophils (Cat #G102, Leinco Technologies). Preparations were counterstained with hematoxylin (catalog no. 7221; Richard-Allan Scientific, Kalamazoo, MI, USA) and mounted in Faramount (catalog no. S3025, DAKO), analyzed and imaged by brightfield microscopy.
Analytical Flow Cytometry: Single cell suspension was prepared from lung tissues. Briefly, tissue samples were sieved through a 100 μM cell strainer (BD Biosciences, San Diego, CA), followed by centrifugation (1,000 rpm, 10 min) to prepare single-cell suspensions. All cells were then stained with fluorescent antibodies to quantify neutrophils, macrophages, lymphocytes and cytokine expression. Briefly, all cells were stained with anti-Gr1 (Neutrophils), Anti-F4/80 (Macrophages), and anti-CD3/CD4/CD8 (Lymphocytes, all from Biolegend USA). Then cells were fixed and permeabilized and stained intracellularly for cytokines including IL-6, TNFα, IL-2, and IFNγ (Proinflammatory cytokines). All samples were run through a 4-Laser LSR II flow cytometer. Cells were gated based on forward and side scatter properties and on marker combinations to select cells of interest. All acquired flow cytometry data were analyzed using the FlowJo V10.
Statistical analysis: Graphs and summary statistics were also used to assess the results. All statistical tests were 2-sided. Except for where noted, all p-values presented are unadjusted for multiple comparisons.

[5] = tested on: Poly(I:C)-induced ARDS in C57BL/6 mice; assay: Poly(I:C)-induced ARDS mouse model, CBD treatment
Experimental: Animal model and application of Poly(I:C) and CBC: Adult (12 weeks) male C57B1/6 mice were block randomized into one of three experimental groups (n=10 mice/group) by a blinded investigator. Group I received intranasal, once daily administration of sterile saline for three consecutive days to serve as a control. Group II received intranasal, once daily administration of Poly I:C (100 μg in 50 μL in sterile saline) for three consecutive days to mimic ARDS. Group III received intranasal, once daily administration of Poly I:C (100 μg in 50 μL in sterile saline) for three consecutive days, with intraperitoneal administration of CBD (isolate CBD, THC-free, 5 mg/kg body weight, Canabidiol Ltd, Dublin, Ireland), first dose two hours after the second Poly(I:C) treatment and every other day for a total of 3 doses to the treatment group. Blood oxygen saturation was quantified via the carotid arteries using a portable pulse oximeter at study initiation (day 0) and once daily for the duration of the study. Mice were euthanized at study day nine. Blood and lung tissue were harvested and subjected to flow cytometry, immunofluorescence and histological analysis, as detailed above. All flow cytometry data were analysed using the FlowJo V10 software while immunofluorescence, and histological preparations were analysed and imaged by fluorescence and bright field microscopy. As for additional histological evaluation, Masson's Trichrome staining was used for the detection of collagen fibres in lung on formalin-fixed, paraffin-embedded sections. The collagen fibres stained in blue and the background is stained red. Sections were examined and analysed using bright field microscopy imaging.

[6] = blood, vs untreated counterparts, p<0.01
[7] = lung tissue, PIC+CBC vs sham or PIC
[8] = lung, vs untreated counterparts, p<0.01
[9] = lung tissue, CBD after Poly(I:C)
[10] = whole blood, CBD 5 mg/kg intraperitoneal, 3 doses, after Poly(I:C)

Chain of transient receptor potential (TRP) ankyrin 1-type (TRPA1) channels (Q6RI86 whole entry): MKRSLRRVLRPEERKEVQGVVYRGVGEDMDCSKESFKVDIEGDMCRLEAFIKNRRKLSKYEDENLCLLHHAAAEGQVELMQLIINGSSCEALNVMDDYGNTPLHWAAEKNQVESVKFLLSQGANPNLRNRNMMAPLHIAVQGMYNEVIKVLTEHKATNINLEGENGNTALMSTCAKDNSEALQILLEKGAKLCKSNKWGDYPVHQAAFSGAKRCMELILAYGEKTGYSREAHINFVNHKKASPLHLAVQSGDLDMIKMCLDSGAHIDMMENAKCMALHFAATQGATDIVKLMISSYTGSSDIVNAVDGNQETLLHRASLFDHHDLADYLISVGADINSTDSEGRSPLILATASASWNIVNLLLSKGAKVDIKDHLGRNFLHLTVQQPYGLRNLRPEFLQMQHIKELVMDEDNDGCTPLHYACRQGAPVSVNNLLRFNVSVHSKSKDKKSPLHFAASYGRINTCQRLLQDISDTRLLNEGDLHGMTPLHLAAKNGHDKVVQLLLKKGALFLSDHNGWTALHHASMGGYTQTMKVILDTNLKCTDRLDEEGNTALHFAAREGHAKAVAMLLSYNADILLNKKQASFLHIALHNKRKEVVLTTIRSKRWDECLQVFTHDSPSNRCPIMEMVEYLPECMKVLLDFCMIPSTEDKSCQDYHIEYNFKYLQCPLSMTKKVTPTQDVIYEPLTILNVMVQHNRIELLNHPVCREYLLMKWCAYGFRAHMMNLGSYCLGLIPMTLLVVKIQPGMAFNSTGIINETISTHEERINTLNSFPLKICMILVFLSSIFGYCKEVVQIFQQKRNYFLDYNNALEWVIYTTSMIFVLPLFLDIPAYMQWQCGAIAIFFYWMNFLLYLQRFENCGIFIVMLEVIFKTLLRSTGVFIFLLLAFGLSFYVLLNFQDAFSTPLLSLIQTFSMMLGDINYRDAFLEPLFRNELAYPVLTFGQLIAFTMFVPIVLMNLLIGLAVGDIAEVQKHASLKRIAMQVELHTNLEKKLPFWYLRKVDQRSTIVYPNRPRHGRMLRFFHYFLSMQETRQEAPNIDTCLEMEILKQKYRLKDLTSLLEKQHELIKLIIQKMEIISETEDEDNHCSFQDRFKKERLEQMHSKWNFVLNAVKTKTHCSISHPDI

SMILES | inhibition of monoacylglycerol lipase (MAGL) [1] | activation of TRPA1 channels [2] | inhibition of endocannabinoid cellular reuptake [3] | increase in blood oxygen saturation ([4]; Poly(I:C) mice, CBC treated vs untreated PIC) | blood oxygen saturation after CBC treatment ([4]; Poly(I:C) mice, pulse oximetry, untreated PIC group 90%) | IFNγ expression level in blood (flow cytometry) [4, 6] | IL-6 expression level in blood (flow cytometry) [4, 6] | IL-17 expression level in blood (flow cytometry) [4, 6] | lung histology (H&E, Masson's trichrome): structural damage, hypertrophy and fibrosis ([4]; lung tissue, PIC+CBC vs PIC) | TRPA1 expression in lung tissue (immunohistochemistry) [4, 7] | TRPV1 expression in lung tissue (immunohistochemistry) [4, 7] | IFNγ expression level in lung (flow cytometry) [4, 8] | IL-6 expression level in lung (flow cytometry) [4, 8] | IL-17 expression level in lung (flow cytometry) [4, 8] | apelin expression in lung tissue (immunofluorescence) [5, 9] | lung histology (Masson's trichrome): inflammatory infiltrate, fibrosis, hypertrophy, pulmonary oedema [5, 9] | apelin expression in blood (flow cytometry) [5, 10] | blood T cells (flow cytometry) [5, 10] | blood neutrophils (flow cytometry) [5, 10]
CCCCCc1cc(O)c2c(c1)OC(C)(CCC=C(C)C)C=C2 (stereo not shown) [CBC, cannabichromene] | weak inhibitor | potent activator | inhibitor of endocannabinoid cellular reuptake | 8% | 98% | curtailed the expression levels | curtailed the expression levels | curtailed the expression levels | reduced hypertrophy and fibrosis | increased the level of expression | increased the level of expression | curtailed the expression levels | curtailed the expression levels | curtailed the expression levels |  |  |  |  | 
C=C(C)[C@@H]1CCC(C)=C[C@H]1c1c(O)cc(CCCCC)cc1O [CBD, cannabidiol] |  |  |  |  |  |  |  |  |  |  |  |  |  |  | increased apelin expression towards control levels; also recorded: normalized the Apelin expression | completely or partially abolished; also recorded: improved the structure towards the normal architecture | enhanced expression of apelin; also recorded: normalized the expression level of apelin; also recorded: attenuated these effects | returned decreased T cells and increased neutrophils towards the normal level | returned decreased T cells and increased neutrophils towards the normal level

From patent US20260097051A1, “CANNA[…] A T[…] FOR COVID-19” (AUGUSTA UNIVERSITY RESEARCH INSTITUTE, INC., priority 2021, published 2026)
